For experiment [1], the system named is healthy females. The note with it: 2 healthy females; after 4 daily doses versus baseline.
Description: Intra-Extra Dimensional Set Shift (IED)
Two artificial dimensions are used in the test: • color-filled shapes • white lines
Simple stimuli are made up of just one of these dimensions, whereas compound stimuli are made up of both, namely white lines overlying colour-filled shapes. The participant starts by seeing two simple colour-filled shapes, and must learn which one is correct by touching it.
Feedback teaches the participant which stimulus is correct, and after six correct responses, the stimuli and/or rules are changed. These shifts are initially intra-dimensional (e.g. colour filled shapes remain the only relevant dimension), then later extra-dimensional (white lines become the only relevant dimension). Participants progress through the test by satisfying a set criterion of learning at each stage (six consecutive correct responses). If at any stage the participant fails to reach this criterion after 50 trials, the test terminates. […]
In experiment [2] the test system is healthy females. Kind of experiment: Neuropsychological tests, proof of concept study: conclusions per neuropsychological domain. The note with it: for Effect regarding executive functioning: 1 subject (trail making B), an indication; for Effect regarding information processing speed: both subjects, multiple indications. The class given is in vivo, human. As to the method: (§1) 2 healthy females performed a number of neuropsychological tests at baseline, after taking 40 mg/day of tamoxifen for 4 consecutive days, and after taking 40 mg/day of tamoxifen combined with 0.5 mg/day of sublingual testosterone for 4 consecutive days, to investigate any beneficial effects of sublingual testosterone in women taking a selective estrogen-receptor modulator (SERM).
In this proof of concept study, 2 healthy females performed a number of neuropsychological tests to investigate any beneficial effects of sublingual testosterone in women taking a SERM. The following neuropsychological domains were investigated (tasks are in brackets, see below for more information): • Information processing speed (Big/Little Circle, Choice Reaction Time, Match to Sample Visual Search, Trail making task A, 5-Choice Reaction Time) • Executive functioning (Intra-Extra Dimensional Set Shift, Trail making task B) • Reaction speed (Single Choice Reaction Time) • Working memory (Rapid Visual Information Processing) • Verbal memory (15-words task)
If tamoxifen in these women were to have detrimental effects on their cognitive functioning, a decrease in speed and/or accuracy on either of these tasks was expected.

For experiment [3], the system named is healthy females. Kind of experiment: 15 Words Test. The format is in vivo, human. The note with it: after 4 daily doses; for 15 words direct / 15 words recall: number of recalled words; for 15 words direct: total in 5 consecutive trials; for 15 words recognition: number of words. The procedure:
as §1
The 15 Words Test (15WT) is developed to investigate episodic memory problems in patients with brain disorders. It is the Dutch version of the Auditory Verbal Learning Test (REF?). This test consists of 15 words, which have to be learned during five trials. After every trial the respondent is asked to recall as many words as possible. After a distraction period of 20 minutes, the respondent is, again asked to name the words they have learned before.

Experiment [4] has as its system healthy females. Kind of experiment: Rapid Visual Information Processing (RVP). The format is in vivo, human. The note with it: 2 healthy females; after 4 daily doses versus baseline.
Description: A white box appears in the centre of the computer screen, inside which digits, from 2 to 9, appear in a pseudo-random order, at the rate of 100 digits per minute.
The nine RVP outcome measures cover latency, probabilities and sensitivity.

For `CC/C(=C(\c1ccccc1)c1ccc(OCCN(C)C)cc1)c1ccccc1` [TAMOXIFEN, (Z)-2-[4-(1,2-diphenylbut-1-enyl)phenoxy]-N,N-dimethyl-ethanamine], the IED task result in the experiment on healthy females [1] is “no effects”. Also, in the experiment on healthy females [2], the “Effect regarding executive functioning” value is reported as “deteriorating effects” and the “Effect regarding information processing speed” value is listed as “deteriorating effects”. For the same compound, in the experiment on healthy females [3] (Subject 1), the 15 words direct came to 51, the 15 words recall is on record as 6 and the 15 words recognition amounted to 27. Also, in the experiment with healthy females [3] (Subject 2), the 15 words direct is reported as 43, the 15 words recall is reported as 9 and the 15 words recognition came to 28. The RVP task result in the experiment with healthy females [4] was “no effects”.
Take `C[C@]12CC[C@H]3[C@@H](CCC4=CC(=O)CC[C@@]43C)[C@@H]1CC[C@@H]2O` [testosterone]: the “Effect regarding verbal memory” value in the experiment on healthy females [2] (1 subject (15 words recall)) is reported as “positive effect”. In the experiment with healthy females [2], the “Effect regarding executive functioning” value is reported as “positive effects” and the “Effect regarding information processing speed” value is “positive effects”.

The record behind these values is patent US20160279146A1, “METHODS AND PHARMACEUTICAL FORMULATIONS FOR TREATMENT OF SELECTIVE ESTROGEN-RECEPTOR MODULATOR-INDUCED ADVERSE DRUG REACTIONS” (priority 2013, published 2016).
